Measured values: ChEMBL document CHEMBL4364346, “Structure optimization of a new class of PPARγ antagonists” (Bioorg Med Chem, 2019)
Converted amounts (≈) assume the structure as drawn.

Experiments:
[1] = biological target: T1, Peroxisome proliferator-activated receptor gamma (Homo sapiens, UniProt P37231); assay: Antagonist actvity in pFA-GAL4-DBD fused PPARgamma LBD (unknown origin) transfected in HEK293T cells assessed as inhibition of rosiglitazone-induced PPARgamma transactivation incubated for 24 hrs by luciferase reporter gene assay; type: cell-based
T1 sequence (P37231 whole entry): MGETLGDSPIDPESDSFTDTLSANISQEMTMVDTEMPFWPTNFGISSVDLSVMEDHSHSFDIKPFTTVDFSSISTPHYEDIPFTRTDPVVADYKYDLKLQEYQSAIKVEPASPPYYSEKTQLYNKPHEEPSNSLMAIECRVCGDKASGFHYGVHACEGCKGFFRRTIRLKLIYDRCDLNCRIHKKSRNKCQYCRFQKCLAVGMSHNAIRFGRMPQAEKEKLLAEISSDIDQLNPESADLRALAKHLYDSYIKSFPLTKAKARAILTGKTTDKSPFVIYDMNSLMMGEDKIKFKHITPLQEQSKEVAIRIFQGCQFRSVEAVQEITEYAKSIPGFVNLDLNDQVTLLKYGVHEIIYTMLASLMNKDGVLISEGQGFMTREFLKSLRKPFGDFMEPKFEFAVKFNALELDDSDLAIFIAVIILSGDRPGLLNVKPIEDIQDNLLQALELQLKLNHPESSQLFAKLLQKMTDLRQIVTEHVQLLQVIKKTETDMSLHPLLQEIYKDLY

[2] = Solubility of compound in PBS buffer pH 7.4 with 1% DMSO measured after 1 and 24 hrs; type: physicochemical; conditions: PBS buffer with 1% DMSO

IC50 ([1]; read-out: IC50)	SMILES	also measured
7.5 µM	COc1cc(C(F)(F)F)nc2ccc(COc3ccc(OCC4CCN(C)CC4)c(/C=C(\CCC4CC4)C(=O)O)c3)cc12	–
–	CCC/C(=C\c1cc(OCc2ccc3[nH]ccc3c2)ccc1OCc1ccc(F)cc1)C(=O)O	IC50 [1]: Not Active
4.7 µM	CCC/C(=C\c1cc(OCc2ccc3nc(C(F)(F)F)cc(OC)c3c2)ccc1OCc1ccncc1)C(=O)O	–
3.5 µM	CCC/C(=C\c1cc(OCc2ccc3nc(C(F)(F)F)cc(OC)c3c2)ccc1OCc1ccccc1F)C(=O)O	–
4.2 µM	CCC/C(=C\c1cc(OCc2ccc3nc(C)ccc3c2)ccc1OCc1ccc(F)cc1)C(=O)O	–
9.6 µM	CCC/C(=C\c1cc(OCc2ccc3nc(C(F)(F)F)cc(OC)c3c2)ccc1OCCN1CCNCC1)C(=O)O	–
13.1 µM	CCC/C(=C\c1cc(OCc2ccc3ccccc3n2)ccc1OCc1ccc(F)cc1)C(=O)O	–
23.9 µM	CCC/C(=C\c1cc(OCc2ccc3cccnc3c2)ccc1OCc1ccc(F)cc1)C(=O)O	–
3.9 µM	CCCn1c(C(=O)O)cc2c(OC)ccc(OCc3ccc4nc(C(F)(F)F)cc(OC)c4c3)c21	–
5.7 µM	CC/C(=C\c1cc(OCc2ccc3nc(C(F)(F)F)cc(OC)c3c2)ccc1OCc1ccc(F)cc1)C(=O)O	–
15.8 µM	CCC/C(=C\c1cc(OCc2ccc3ccccc3c2)ccc1OCc1ccc(F)cc1)C(=O)O	–
2.6 µM	CCCC/C(=C\c1cc(OCc2ccc3nc(C(F)(F)F)cc(OC)c3c2)ccc1OCc1ccc(OC(F)F)cc1)C(=O)O	–
–	CCC/C(=C\c1cc(OCc2ccc3nc(C(F)(F)F)cc(OC)c3c2)ccc1OCC1CCNCC1)C(=O)O	IC50 [1]: Not Active
–	CCCCC(Cc1cc(OCc2ccc3nc(C(F)(F)F)cc(OC)c3c2)ccc1OCc1ccc(C(F)(F)F)cc1)C(=O)O (configuration not stated)	IC50 [1]: Not Active
5 µM	CCC/C(=C\c1cc(OCc2ccc3ncccc3c2)ccc1OCc1ccc(F)cc1)C(=O)O	–
6.1 µM	CCC/C(=C\c1cc(OCc2ccc3c(ccc[n+]3[O-])c2)ccc1OCc1ccc(F)cc1)C(=O)O	–

IC50 ([1]; read-out: IC50)	SMILES	also measured
9.4 µM	COc1cc(C(F)(F)F)nc2ccc(COc3ccc(OCc4ccc(F)cc4)c(/C=C(\C)C(=O)O)c3)cc12	–
–	CCC/C(=C\c1cc(OCc2ccc(N(C)C)cc2)ccc1OCc1ccc(F)cc1)C(=O)O	IC50 [1]: Not Active
9.5 µM	CCC/C(=C\c1cc(OCc2ccc3nc(C(F)(F)F)cc(OC)c3c2)ccc1NC(=O)c1ccc(F)cc1)C(=O)O	–
2.3 µM	CCCC/C(=C\c1cc(OCc2ccc3nc(C(F)(F)F)cc(OC)c3c2)ccc1OCc1ccc(F)cc1)C(=O)O	–
3.9 µM	CCC/C(=C\c1cc(OCc2ccc3nc(C(F)(F)F)cc(OC)c3c2)ccc1OCc1cccc(F)c1)C(=O)O	–
15.1 µM	CCC/C(=C\c1cc(OCc2ccc3ncccc3c2)ccc1OCC1CCN(C)CC1)C(=O)O	–
3.2 µM	CCC/C(=C\c1cc(OCc2ccc3nc(C(F)(F)F)cc(OC)c3c2)ccc1OCc1ccc(F)cc1)C(=O)O	–
–	CCC/C(=C\c1cc(OC)ccc1OCc1ccc2nc(C(F)(F)F)cc(OC)c2c1)C(=O)O	IC50 [1]: Not Active
7.2 µM	CCC/C(=C\c1cc(OCc2ccc3nc(C(F)(F)F)cc(OC)c3c2)ccc1OCc1ccccc1)C(=O)O	–
11 µM	COc1cc(C(F)(F)F)nc2ccc(COc3ccc(OCc4ccc(F)cc4)c(/C=C/C(=O)O)c3)cc12	–
–	CCCC/C(=C\c1cc(OCc2cn(Cc3ccc(C(=O)O)cc3)nn2)ccc1OCc1ccc(C(F)(F)F)cc1)C(=O)O	IC50 [1]: Not Active
6.1 µM	CCC/C(=C\c1cc(OCc2ccc3[nH]c(=O)ccc3c2)ccc1OCc1ccc(F)cc1)C(=O)O	–
–	COc1cc(C(F)(F)F)nc2ccc(COc3ccc(OCc4ccc(F)cc4)c(/C=C(\F)C(=O)O)c3)cc12	IC50 [1]: Not Active
1.9 µM	CCCC/C(=C\c1cc(OCc2ccc3nc(C(F)(F)F)cc(OC)c3c2)ccc1OCc1ccc(OC(F)(F)F)cc1)C(=O)O	–
–	CCCC/C(=C\c1cc(OCc2ccc3nc(C(F)(F)F)cc(OC)c3c2)ccc1OCc1ccc(C(F)(F)F)cc1)C(=O)O	solubility at 24 h [2]: 50 to 75 µM (≈ 31.7 to 47.5 µg/mL)
8.4 µM	COc1cc(C(F)(F)F)nc2ccc(COc3ccc(OCc4ccc(F)cc4)c(/C=C(\CC4CC4)C(=O)O)c3)cc12	–
